{"source": "patent US8669232B2", "about": "“Flavonol compounds, a bioactive extract/fraction from Ulmus wallichiana and its compounds for prevention for treatment of osteo-health related disorders” (Council of Scientific & Industrial Research, priority 2008, dated 2014)", "key": {"[1]": {"system": "calvarial osteoblasts", "test": "BrdU cell proliferation assay", "assay_type": "cell-based, neonatal Sprague-Dawley rats", "description": "(§1) Neonatal rat calvarial cell cultures are prepared as described previously (Chattopadhyay et al., Endocrinology 145:3451-62, 2004) using slight modification. Briefly, for calvarial osteoblast cultures, frontal and parietal bones from neonatal Sprague-Dawley rats (1-3 day old) were digested in 0.1% collagenase/0.1% dispase in α-MEM to obtain 5 sequential digests. The second through fifth digests are combined and grown to confluence at 37° C. and 5% CO2 in air in α-MEM, supplemented with 10% fetal bovine serum (FBS), 2 mM glutamine, 100 U/ml penicillin-streptomycin, non-essential amino acid solution and sodium pyruvate.\nBrdU assay is used to measure cell proliferation based on the incorporation of BrdU during DNA synthesis in proliferating cells (Chattopadhyay et al., Endocrinology 145:3451-62, 2004). […] Cells were allowed to attach for 24 h and after that cells were starved in 0.5% FCS containing α-MEM medium followed by treatment of K058 at various concentrations for 24 hrs following which cell proliferation was determined by BrdU ELISA method as described by the manufacturer (Roche Biochemicals, Rotkreuz, Switzerland). […] BrdU incubation was carried out for 4 h, cells were fixed and denatured and subsequently treated with anti-BrdU antibody and the immune complexes were detected by the substrate reaction. Absorbance was measured at 370 nm."}, "[2]": {"system": "ovariectomized Sprague Dawley rats", "test": "BMD by DEXA in ovariectomized (Ovx) rats, bone loss model", "assay_type": "in vivo", "conditions": "90 days, compared with Ovx + vehicle; for BMD tibia head: 5 mg/kg body weight oral daily", "description": "(§2) Bone mineral density of femur (global, head, neck), tibia (global, head, tibio-fibular separation point) and lumber vertebra (LV1, LV2, LV3, LV4) was determined by DEXA.\n(§3) K058 at 1 to 10 mg/kg body weight were given daily by oral route to Sprague Dawley (180-200 g) rats after bilateral ovariectomy (Ovx). This is the most widely used animal model for osteopenia (bone loss) mimicking human condition of post-menopausal bone loss. The extract was given in gum acacia (vehicle). Sham operated rats and Ovx rats were used as controls and given only gum acacia. Each group consisted of 10 rats and the groups were as follows: sham intact, Ovx, Ovx+1 mg/kg K058 and Ovx+5 mg/kg K058. Treatment started 24 h after the surgery and continued for 90 days. After 90 days, the rats were first acclimatized and then kept in metabolic cages with no food but only water for 24 h to collect urine samples. After 24 h, rats were returned to the cages with food and water ad libitum with oral administration of the extract as before foe an additional 24 hour. Rats were then euthanized and autopsied to collect blood, bones (tibia, femur, L1-L4 vertebrae) and uterus.\nas §3, with “K012” for “K058”, “doses of 1- and 5” for “1 to 10”, “(Ovx).” for “(Ovx). This is the most widely used animal model for osteopenia (bone loss) mimicking human condition of post-menopausal bone loss.”, “K012.” for “K058.”, “for” for “foe”"}, "[3]": {"system": "calvarial osteoblasts", "test": "Semi-quantitative RT-PCR of osteogenic genes", "assay_type": "cell-based, neonatal Sprague-Dawley rats", "conditions": "10^−7 M", "description": "as §1\nRT-PCR was performed for assessing mRNA levels of Col1 (collagen type I), Cbfa-1 (Core binding factor-1), ALP (Alkaline phosphatase), OPN (osteopontin), BMP 2 (Bone morphogenic protein 2), OPG (Osteoprotegrin), and OCN (Osteocalcin). The house-keeping gene GAPDH (Glyceraldehyde-3-phosphate dehydrogenase) was used as the internal control in this study. RNAs were extracted at 0-, 4-, 8-, 12-, 24-, and 48 h. Total RNA was extracted using TRIzol reagent (Invitrogen). A single step RT PCR kit (Qaigen) was used to perform RT-PCR according to the manufacturer's instructions. Following gene specific primer pairs were used (Table 2)."}, "[4]": {"system": "growing female Sprague Dawley rats", "test": "Attainment of peak bone mass: BMD by DEXA in growing rats", "assay_type": "in vivo", "conditions": "21 days old female rats, 5 mg/kg body weight oral daily, 30 days; vs vehicle", "description": "21 days old female Sprague Dawley rats were divided into three groups, each group consisted of 10 rats; control (vehicle treated), 750 mg/kg C002 crude extract, and 50 mg/kg 914/F004. Vehicle or treatments were given daily by oral route in gum acacia for 30 days. After completion of 30 days the rats were euthanized and there bones (femur, tibia, L1-L4 vertebra) were collected.\nBone Mineral Density of Femur (Global, head, neck), tibia (global, head, tibio-fibular separation point) and lumber vertebra (LV1, LV2, LV3, LV4) was determined by DEXA.\nFemale Sprague Dawley rats at weaning (˜21 d old) were divided into two groups consisting of 10 rats per group. Control rats were treated with gum acacia (vehicle) and the other group was treated with K058 at 5 mg/kg body weight. All the control and treated rats were given K058 or vehicle daily by oral route in gum acacia for 30 days. After completion of 30 days the rats were euthanized and their bones (femur, tibia, L1-L4 vertebra) were collected.\nas §2"}, "[5]": {"conditions": "5.0 mg/kg body weight oral daily"}}, "data": [{"compound": "O=c1c(O)c(-c2ccc(O)c(O)c2)oc2cc(O)c(C3O[C@H](CO)[C@@H](O)[C@H](O)[C@H]3O)c(O)c12", "note": "(stereo partly drawn) [K012, 6-Glucopyranosyl-3,3′,4′,5,7-pentahydroxyflavone]", "values": [{"measurement": "osteoblast proliferation (summary of in vitro effects)", "setting": "[1]", "result": "promoted"}, {"measurement": "BMD tibio-fibular separation point (TFSP)", "setting": "[2]; 1.0 mg/kg body weight oral daily", "result": "increase"}, {"measurement": "BMD tibia head", "setting": "[2]", "result": "significantly higher"}, {"measurement": "BMD lumber vertebra global", "setting": "[2]; [5]", "result": "higher"}, {"measurement": "BMD second lumber vertebra", "setting": "[2]; [5]", "result": "higher"}, {"measurement": "BMD femur neck", "setting": "[2]; 5.0 mg/kg oral daily", "result": "significantly higher"}, {"measurement": "BMD tibia global", "setting": "[2]; 5.0 mg/kg oral daily", "result": "significantly higher"}, {"measurement": "BMD tibio-fibular separation point (TFSP)", "setting": "[2]; 5.0 mg/kg oral daily", "result": "significantly higher"}]}, {"compound": "O=C1c2c(cc(O)c([C@@H]3OC(CO)[C@@H](O)[C@H](O)C3O)c2O)O[C@@H](c2ccc(O)c(O)c2)[C@@H]1O", "note": "(stereo partly drawn) [K058, (2S,3S)-(+)-3′,4′,5,7-tetrahydroxydihydroflavonol-6-C-β-D-glucopyranoside]", "values": [{"measurement": "osteoblast proliferation (summary of in vitro effects)", "setting": "[1]", "result": "promoted"}, {"measurement": "BMD tibia head", "setting": "[2]", "result": "increased"}, {"measurement": "BMD L4 vertebra", "setting": "[2]; 1.0&5.0 mg/kg body weight oral daily", "result": "higher"}, {"measurement": "BMD femur global", "setting": "[2]; 1.0-5.0 mg/kg oral daily", "result": "significantly higher"}, {"measurement": "BMD femur neck", "setting": "[2]; 1.0-5.0 mg/kg oral daily", "result": "significantly higher"}, {"measurement": "BMD femur shaft", "setting": "[2]; 1.0-5.0 mg/kg oral daily", "result": "significantly higher"}, {"measurement": "mRNA levels of OPG (Osteoprotegrin)", "setting": "[3]", "result": "increased"}, {"measurement": "mRNA levels of Alkaline phosphatase (ALP)", "setting": "[3]; 0 to 48 h", "result": "increased"}, {"measurement": "mRNA levels of bone morphogenic protein-2 (BMP-2)", "setting": "[3]; 0 to 48 h", "result": "increased"}, {"measurement": "mRNA levels of collagen I (COL-1)", "setting": "[3]; 0 to 48 h", "result": "increased"}, {"measurement": "mRNA levels of core binding factor-1 (Cbfa-1)", "setting": "[3]; 0 to 48 h", "result": "increased"}, {"measurement": "mRNA levels of osteocalcin (OCN)", "setting": "[3]; 0 to 48 h", "result": "increased"}, {"measurement": "BMD shaft region of femur", "setting": "[4]", "result": "significantly more"}]}]}
